Assay results from US12427146B2, “C-terminal SRC kinase inhibitors” (INVENTISBIO CO., LTD., priority 2018, dated 2025).
pIC50: −log10 of the molar value.

Columns and labels:
[1] = molecular target: CSK protein (Homo sapiens (Human), UniProt P41240); experiment: CSK Inhibition Assay; format: biochemical
Procedure: Test compound was dissolved in DMSO at 10 mM. 45 uL of compound was transferred into a 384-well compound source plate (LABCYTE cat #P-05525) and serially diluted at 1:3 ratio to create a 11-point dilutions. The same volume of DMSO was adopted as high control. 20 nL of these compounds DMSO dilutes were dispensed into a new 384-well assay plate by Echo 550. […] 15 uL of kinase assay buffer containing CSK protein and substrate was transferred to assay plate and incubated at RT for 30 minutes. Kinase assay buffer supplemented with substrate peptides was employed as low control to monitor the background. 4 μM of ATP was prepared in kinase assay buffer and 5 μL of ATP solution was added to each well to start the reaction. The assay plate was incubated at 25° C. for 90 minutes and the reaction was stopped by adding 40 μL of 0.5 M EDTA.
(§1) Phosphorylated fluorescent-tagged peptides were differentiated from non-phosphorylated peptides by separating using Caliper EZ Reader II and the detection was directly converted to conversion ratio.
(§2) For estimation of IC50, the % substrate conversion values are transformed to % Inhibition Ratio by applying the following equation: […]

[2] = molecular target: LCK protein (Homo sapiens (Human), UniProt P06239); experiment: LCK Inhibition Assay; format: biochemical
Procedure: Test compound was dissolved in DMSO at 10 mM. 45 uL of compound was transfer into a 384-well compound source plate (LABCYTE cat #P-05525) and serially diluted at 1:3 ratio to create a 11-point dilutions. The same volume of DMSO was adopted as high control. 20 nL of these compounds DMSO dilutes were dispensed into a new 384-well assay plate by Echo 550. LCK protein (0.50 nM, Cama Biosciences, cat #08-170), florescent labeled substrate FLPeptide4 (2 μM, PerkinElmer, cat #760348) was prepared in kinase assay buffer (50 mM HEPES (pH 7.5), 10 mM MgCl2, 0.01% Brij-35, 2 mM DTT and 0.005 mg/ml BSA). 15 uL of kinase assay buffer containing LCK protein and substrate was transferred to assay plate and incubate at RT for 30 minutes. Kinase assay buffer supplemented with substrate peptides was employed as low control to monitor the background. 400 μM ATP was prepared in kinase assay buffer and 5 μL of ATP solution was added to each well to start the reaction. The assay plate was incubated at 25° C. for 90 minutes and the reaction was stopped by adding 40 μL of 0.5 M EDTA.
as §1, §2

Sequence of LCK protein (P06239 whole entry): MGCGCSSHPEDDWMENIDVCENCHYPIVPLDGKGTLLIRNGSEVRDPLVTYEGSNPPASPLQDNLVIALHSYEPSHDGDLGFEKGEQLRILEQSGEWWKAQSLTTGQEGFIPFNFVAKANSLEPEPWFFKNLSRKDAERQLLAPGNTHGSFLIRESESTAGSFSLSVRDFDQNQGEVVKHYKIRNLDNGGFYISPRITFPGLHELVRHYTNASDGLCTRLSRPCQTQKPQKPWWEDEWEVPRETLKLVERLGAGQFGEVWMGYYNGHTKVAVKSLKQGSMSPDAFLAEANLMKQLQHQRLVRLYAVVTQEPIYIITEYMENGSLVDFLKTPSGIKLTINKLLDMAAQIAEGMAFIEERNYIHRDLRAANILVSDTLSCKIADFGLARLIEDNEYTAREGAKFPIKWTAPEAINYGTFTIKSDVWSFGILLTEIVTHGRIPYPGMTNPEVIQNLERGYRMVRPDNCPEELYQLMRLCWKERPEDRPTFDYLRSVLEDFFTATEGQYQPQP

Row | pIC50 [1] | pIC50 [2] | Compound
1 | 8.15 | < 6.00 | CNc1nccc(-c2sc(N3CCCCC3)nc2-c2cccc(NS(=O)(=O)c3c(F)cccc3F)c2F)n1 [Compound 115]
2 | 7.87 | 6.00 to 7.00 | CNc1nccc(-c2sc(N3CCOCC3)nc2-c2cccc(NS(=O)(=O)c3c(F)cccc3F)c2F)n1 [Compound 116]
3 | 7.09 | < 6.00 | CNc1nccc(-c2sc(C(C)(C)C)nc2-c2cccc(NS(=O)(=O)c3c(F)cccc3F)c2F)n1 [Compound 117]
4 | 8.43 | > 7.00 | CN1CCN(c2ccc(Nc3nccc(-c4sc(C(C)(C)C)nc4-c4cccc(NS(=O)(=O)c5c(F)cccc5F)c4F)n3)cn2)CC1 [Compound 119]
5 | 7.69 | > 7.00 | CC(C)c1nc(-c2cccc(NS(=O)(=O)c3c(F)cccc3F)c2F)c(-c2ccnc(Nc3ccccc3)n2)s1 [Compound 120]
6 | 7.81 | > 7.00 | O=S(=O)(Nc1cccc(-c2nc(C3CCCCC3)sc2-c2ccnc(Nc3ccc(N4CCOCC4)nc3)n2)c1F)c1c(F)cccc1F [Compound 121]
7 | 6.20 | 6.00 to 7.00 | Nc1nccc(-c2sc(C3CCNCC3)nc2-c2cccc(NS(=O)(=O)c3c(F)cccc3F)c2F)n1 [Compound 122]
8 | 7.63 | < 6.00 | CNc1nccc(-c2sc(-c3ccc(F)cn3)nc2-c2cccc(NS(=O)(=O)c3c(Cl)cccc3Cl)c2F)n1 [Compound 123]
9 | 7.83 | < 6.00 | CNc1nccc(-c2sc(N3CCCC3=O)nc2-c2cccc(NS(=O)(=O)c3c(F)ccc(C)c3F)c2F)n1 [Compound 124]
10 | 7.82 | < 6.00 | Cc1ccc(Cl)c(S(=O)(=O)Nc2cccc(-c3nc(-c4ccc(F)cn4)sc3-c3ccnc(N)n3)c2F)c1Cl [Compound 125]
11 | 7.52 | < 6.00 | CNc1nccc(-c2sc(-c3ccc(F)cn3)nc2-c2cccc(NS(=O)(=O)c3c(Cl)ccc(C)c3Cl)c2F)n1 [Compound 126]
12 | 8.24 | < 6.00 | CNc1nccc(-c2sc(-c3cncc(F)c3)nc2-c2cccc(NS(=O)(=O)c3c(Cl)cccc3Cl)c2F)n1 [Compound 127]
13 | 7.92 | < 6.00 | CNc1nccc(-c2sc(N3CCCC3)nc2-c2cccc(NS(=O)(=O)c3c(F)cccc3F)c2F)n1 [Compound 128]
14 | 8.13 | < 6.00 | COc1ccn2c(-c3ccnc(NC4CC4)n3)c(-c3cccc(NS(=O)(=O)c4c(F)ccc(C)c4F)c3F)nc2c1 [Compound 129]
15 | 6.67 | < 6.00 | COc1ccn2c(-c3ccnc(NCCO)n3)c(-c3cccc(NS(=O)(=O)c4c(F)ccc(C)c4F)c3F)nc2c1 [Compound 130]
16 | 7.88 | < 6.00 | Cc1ccc(F)c(S(=O)(=O)Nc2cccc(-c3nc(-c4ccccc4)sc3-c3ccnc(NCCO)n3)c2F)c1F [Compound 131]
17 | 7.21 | 6.00 to 7.00 | Nc1nccc(-c2sc(-c3ccc(F)cn3)nc2-c2cccc(NS(=O)(=O)c3c(Cl)cccc3Cl)c2F)n1 [Compound 132]
18 | 7.75 | < 6.00 | O=S(=O)(Nc1cccc(-c2nc(-c3ccc(F)cn3)sc2-c2ccnc(NCCO)n2)c1F)c1c(Cl)cccc1Cl [Compound 133]
19 | 6.73 | < 6.00 | CNc1nccc(-c2sc(-c3ccc(F)cn3)nc2-c2cccc(NS(=O)(=O)c3c(F)cc(Cl)cc3F)c2F)n1 [Compound 134]
20 | 7.80 | < 6.00 | O=S(=O)(Nc1cccc(-c2nc(-c3ccc(F)cn3)sc2-c2ccnc(NC3CC3)n2)c1F)c1c(Cl)cccc1Cl [Compound 135]
21 | 6.97 | < 6.00 | Cc1ccc(Cl)c(S(=O)(=O)Nc2cccc(-c3nc(-c4ccc(F)cn4)sc3-c3ccnc(NCCO)n3)c2F)c1Cl [Compound 136]
22 | 7.67 | < 6.00 | Cc1ccc(Cl)c(S(=O)(=O)Nc2cccc(-c3nc(-c4ccc(F)cn4)sc3-c3ccnc(NC4CC4)n3)c2F)c1Cl [Compound 137]
23 | 8.07 | < 6.00 | Cc1ccc(Cl)c(S(=O)(=O)Nc2cccc(-c3nc(-c4cncc(F)c4)sc3-c3ccnc(NCCO)n3)c2F)c1Cl [Compound 138]
